Data published in patent publication US9169270B2, “1-phenyl-substituted heterocyclyl derivatives and their use as prostaglandin D2 receptor modulators” (Actelion Pharmaceuticals Ltd., priority 2012, dated 2015).

Biological target: hCRTH2 receptor (Homo sapiens (Human), UniProt Q9Y5Y4)
Test: hCRTH2 receptor membranes radioligand (3H-PGD2) displacement assay
Details: hCRTH2 membrane fragments, Binding-Buffer with 0.1% BSA
Procedure, shortened: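 Membranes from HEK293 cells expressing recombinant hCRTH2 (20 μg/well) incubated with compound and ³H-PGD2 for 90 min at room temperature in Tris buffer pH 7.0 with NaCl, EDTA, 0.1% BSA, 10 mM MnCl2. Bound radioactivity collected on PEI-treated GF/C filters and counted; non-specific binding defined with excess PGD2.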

hCRTH2 receptor, sequence (Q9Y5Y4 whole entry): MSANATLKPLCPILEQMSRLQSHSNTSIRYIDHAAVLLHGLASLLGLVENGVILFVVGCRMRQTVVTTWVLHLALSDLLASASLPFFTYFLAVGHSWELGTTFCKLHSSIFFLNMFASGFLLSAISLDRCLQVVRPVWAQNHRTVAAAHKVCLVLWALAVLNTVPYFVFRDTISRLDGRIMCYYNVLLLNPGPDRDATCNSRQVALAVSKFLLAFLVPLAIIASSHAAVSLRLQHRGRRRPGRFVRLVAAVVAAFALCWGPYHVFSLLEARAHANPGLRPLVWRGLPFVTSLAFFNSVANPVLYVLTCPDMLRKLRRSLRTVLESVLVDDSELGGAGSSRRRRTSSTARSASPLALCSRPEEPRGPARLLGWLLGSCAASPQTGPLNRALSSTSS

| IC50 [nM] | Compound |
| --- | --- |
| 3.4 | N#Cc1ccc(OCC(=O)O)c(C2c3scnc3CCN2C(=O)OCc2ccccc2)c1 (racemic) [Example 106, (±)-4-(2-Carboxymethoxy-5-cyano-phenyl)-6,7-dihydro-4H-thiazolo[5,4-c]pyridine-5-carboxylic acid benzyl ester] |
| 1 | O=C(O)COc1ccc(Cl)cc1[C@@H]1c2scnc2CCN1C(=O)OCc1cc(F)ccc1F [Example 58, (R)-4-(2-Carboxymethoxy-5-chloro-phenyl)-6,7-dihydro-4H-thiazolo[5,4-c]pyridine-5-carboxylic acid 2,5-difluoro-benzyl ester] |
| 0.4 | CC(C)CCOC(=O)N1CCc2ncsc2[C@H]1c1cc(Cl)ccc1OCC(=O)O [Example 67, (R)-4-(2-Carboxymethoxy-5-chloro-phenyl)-6,7-dihydro-4H-thiazolo[5,4-c]pyridine-5-carboxylic acid 3-methyl-butyl ester] |
| 0.9 | Cc1ccc(COC(=O)N2CCc3ncsc3[C@H]2c2cc(Cl)ccc2OCC(=O)O)c(C)c1 [Example 63, (R)-4-(2-Carboxymethoxy-5-chloro-phenyl)-6,7-dihydro-4H-thiazolo[5,4-c]pyridine-5-carboxylic acid 2,4-dimethyl-benzyl ester] |
| 11.8 | CCCCOC(=O)N1CCc2ncsc2C1c1cc(Cl)ccc1OCC(=O)O (racemic) [Example 99, (±)-4-(2-Carboxymethoxy-5-chloro-phenyl)-6,7-dihydro-4H-thiazolo[5,4-c]pyridine-5-carboxylic acid butyl ester] |

More lines, now with the values behind:

| Compound | IC50 [nM] |
| --- | --- |
| O=C(O)COc1ccc(Cl)cc1C1c2scnc2CCN1C(=O)COc1ccccc1 (racemic) [Example 34, (±)-{4-Chloro-2-[5-(2-phenoxy-acetyl)-4,5,6,7-tetrahydro-thiazolo[5,4-c]pyridin-4-yl]-phenoxy}-acetic acid] | 87.4 |
| O=C(O)COc1ccc(Cl)cc1C1c2scnc2CCN1C(=O)Cc1ccc2ccccc2c1 (racemic) [Example 49, (±)-{4-Chloro-2-[5-(2-naphthalen-2-yl-acetyl)-4,5,6,7-tetrahydro-thiazolo[5,4-c]pyridin-4-yl]-phenoxy}-acetic acid] | 15.8 |
| O=C(O)COc1ccc(Cl)cc1C1c2scnc2CCN1C(=O)CC1Cc2ccccc2C1 (racemic) [Example 46, (±)-{4-Chloro-2-[5-(2-indan-2-yl-acetyl)-4,5,6,7-tetrahydro-thiazolo[5,4-c]pyridin-4-yl]-phenoxy}-acetic acid] | 6.2 |
| O=C(O)COc1ccc(Cl)cc1C1c2scnc2CCN1C(=O)COCc1ccccc1Cl (racemic) [Example 31, (±)-(4-Chloro-2-{5-[2-(2-chloro-benzyloxy)-acetyl]-4,5,6,7-tetrahydro-thiazolo[5,4-c]pyridin-4-yl}-phenoxy)-acetic acid] | 5 |
| Cc1ccc(/C=C/C(=O)N2CCc3ncsc3C2c2cc(Cl)ccc2OCC(=O)O)cc1 (racemic) [Example 56, (±)-{4-Chloro-2-[5-((E)-3-p-tolyl-acryloyl)-4,5,6,7-tetrahydro-thiazolo[5,4-c]pyridin-4-yl]-phenoxy}-acetic acid] | 71.9 |
| CCc1nc2c(s1)C(c1cc(Cl)ccc1OCC(=O)O)N(C(=O)OCc1ccccc1)CC2 (racemic) [Example 16, (±)-4-(2-Carboxymethoxy-5-chloro-phenyl)-2-ethyl-6,7-dihydro-4H-thiazolo[5,4-c]pyridine-5-carboxylic acid benzyl ester] | 14.2 |
| O=C(O)COc1ccc(Cl)cc1C1c2sc(C(F)(F)F)nc2CCN1C(=O)OCc1ccccc1 (racemic) [Example 12, (±)-4-(2-Carboxymethoxy-5-chloro-phenyl)-2-trifluoromethyl-6,7-dihydro-4H-thiazolo[5,4-c]pyridine-5-carboxylic acid benzyl ester] | 6.5 |
